Assay in all cases: relative viability (nuclei count vs DMSO), 5 days (fraction); higher = more cells survive
Compound in the experiment “NVP-TAE684 + OSI-027”: COc1cc(N2CCC(N3CCN(C)CC3)CC2)ccc1Nc1ncc(Cl)c(Nc2ccccc2S(=O)(=O)C(C)C)n1 [NVP-TAE684] + COc1cccc2cc(-c3nc([C@H]4CC[C@H](C(=O)O)CC4)n4ncnc(N)c34)[nH]c12 [OSI-027] (partner 0.5 µM)
The essentials: (§1)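 Medians of duplicate plates are given as relative viability. That measure is the nuclei count in treated wells divided by the count in vehicle wells. Counts were taken on 4× images of lung cancer cell lines in 1536-well plates, 5 days after pin-tool dosing the day after seeding with one drug alone or a fixed anchor-drug dose plus five library-drug doses (not always all listed) in √10 steps.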

Compound in the experiment “CUDC-101 + Alpelisib”: C#Cc1cccc(Nc2ncnc3cc(OC)c(OCCCCCCC(=O)NO)cc23)c1 [CUDC-101] + Cc1nc(NC(=O)N2CCC[C@H]2C(N)=O)sc1-c1ccnc(C(C)(C)C(F)(F)F)c1 [Alpelisib] (partner 2 µM)
Summed up: as §1

Compound in the experiment “NVP-TAE684 + Pemetrexed”: COc1cc(N2CCC(N3CCN(C)CC3)CC2)ccc1Nc1ncc(Cl)c(Nc2ccccc2S(=O)(=O)C(C)C)n1 [NVP-TAE684] + Nc1nc2[nH]cc(CCc3ccc(C(=O)N[C@@H](CCC(=O)O)C(=O)O)cc3)c2c(=O)[nH]1 [Pemetrexed] (partner 0.2 µM)
The essentials:
as §1

Compound in the experiment “Vandetanib + Crizotinib”: COc1cc2/c(=N/c3ccc(Br)cc3F)nc[nH]c2cc1OCC1CCN(C)CC1 [Vandetanib] + C[C@@H](Oc1cc(-c2cnn(C3CCNCC3)c2)cnc1N)c1c(Cl)ccc(F)c1Cl [Crizotinib] (partner 1 µM)
The essentials: as §1

In the case of UMC-11, the relative viability in the experiment with NVP-TAE684 + OSI-027 (first compound 0.2 µM) was determined as 0.412; with NVP-TAE684 + OSI-027 (first compound 0.6325 µM), 0.438; with NVP-TAE684 + OSI-027 (first compound 2 µM) it was 0.282; in the experiment with CUDC-101 + Alpelisib (first compound 0.01 µM) it was 1.24; in the experiment with CUDC-101 + Alpelisib (first compound 0.03162 µM), 0.902; in the experiment with CUDC-101 + Alpelisib (first compound 0.1 µM), 0.779. For the same cell line, the relative viability with CUDC-101 + Alpelisib (first compound 0.3162 µM) is 0.395; in the experiment with CUDC-101 + Alpelisib (first compound 1 µM), 0.123; with NVP-TAE684 + Pemetrexed (first compound 0.2 µM), 0.736; with NVP-TAE684 + Pemetrexed (first compound 0.6325 µM), 0.735; with NVP-TAE684 + Pemetrexed (first compound 2 µM), 0.347; with Vandetanib + Crizotinib (first compound 0.02 µM) it was 0.588. The relative viability turned out to be 0.654 with Vandetanib + Crizotinib (first compound 0.06325 µM), 0.632 with Vandetanib + Crizotinib (first compound 0.2 µM), 0.494 with Vandetanib + Crizotinib (first compound 0.6325 µM) and 0.61 with Vandetanib + Crizotinib (first compound 2 µM).

The values are drawn from the supplement of paper PMC10307832.
